Patent US11331327B2, “Antibacterial use of halogenated salicylanilides” (UNION therapeutics A/S, priority 2014, dated 2022)
Read-outs that look alike come from different tables or passages of the source.

System: S. aureus clinical isolates and S. aureus ATCC 29213
Experiment: MIC assay according to CLSI criteria, Example 2, S. aureus strains
Format: cell-based, Staphylococcus aureus
Settings: Staphylococcus aureus, read-out: MIC
Procedure: Strains were conserved in Luria Bertani (LB) Broth (S. aureus) or Brain Heart Infusion (BHI) (S. pyogenes) supplemented with glycerol 15% (v/v) at −80° C., and reactivated by isolation on LB (S. aureus) or BHI (S. pyogenes) agar plates. Strains were cultivated in Mueller Hinton (MH) Broth-cation adjusted (S. aureus) or BHI (S. pyogenes). All strains were cultivated aerobically (microaerobically for S. pyogenes strains) at 37° C.
Bacterial cultures were stopped in their exponential growth phase and plates were inoculated with the approximate concentration of 5×10^5 cells per well. Plates were incubated at 37° C. for 18 hours (S. aureus) or 24 hours (S. pyogenes).

Measured: MIC

C/C(=C\C(=O)OCCCCCCCCC(=O)O)C[C@@H]1OC[C@H](C[C@@H]2O[C@H]2[C@@H](C)[C@H](C)O)[C@@H](O)[C@H]1O [Mupirocin]
0.125 µg/mL: ATCC 29213 / MRSA, strain MRSA 18 | ATCC 29213 / MRSA, strain MRSA 21 | ATCC 29213 / MRSA, strain MRSA 30 | ATCC 29213 / MRSA, strain MRSA 38 | ATCC 29213 / MRSA, strain MRSA 41 | ATCC 29213 / MRSA, strain MRSA 57 | ATCC 29213 / MRSA, strain MRSA 58 | ATCC 29213 / MRSA, strain MRSA 59 | ATCC 29213 / MRSA, strain MRSA 63 | ATCC 29213 / MRSA, strain MRSA 67 | ATCC 29213 / MRSA, strain MRSA 69 | ATCC 29213 / MRSA, strain MRSA 71 | ATCC 29213 / MRSA, strain MRSA 96 | ATCC 29213 / MRSA, strain MRSA 110 | ATCC 29213 / MSSA, strain MSSA 01 | ATCC 29213 / MSSA, strain MSSA 02
0.25 µg/mL: ATCC 29213 / MRSA, strain MRSA 15 | ATCC 29213 / MRSA, strain MRSA 19 | ATCC 29213 / MRSA, strain MRSA 20 | ATCC 29213 / MRSA, strain MRSA 22 | ATCC 29213 / MRSA, strain MRSA 23 | ATCC 29213 / MRSA, strain MRSA 24 | ATCC 29213 / MRSA, strain MRSA 25 | ATCC 29213 / MRSA, strain MRSA 27 | ATCC 29213 / MRSA, strain MRSA 27b | ATCC 29213 / MRSA, strain MRSA 29 | ATCC 29213 / MRSA, strain MRSA 31 | ATCC 29213 / MRSA, strain MRSA 32 | ATCC 29213 / MRSA, strain MRSA 33 | ATCC 29213 / MRSA, strain MRSA 34 | ATCC 29213 / MRSA, strain MRSA 36 | ATCC 29213 / MRSA, strain MRSA 37 | ATCC 29213 / MRSA, strain MRSA 39 | ATCC 29213 / MRSA, strain MRSA 40 | ATCC 29213 / MRSA, strain MRSA 42 | ATCC 29213 / MRSA, strain MRSA 43 | ATCC 29213 / MRSA, strain MRSA 44 | ATCC 29213 / MRSA, strain MRSA 47 | ATCC 29213 / MRSA, strain MRSA 49 | ATCC 29213 / MRSA, strain MRSA 50 | ATCC 29213 / MRSA, strain MRSA 51 | ATCC 29213 / MRSA, strain MRSA 52 | ATCC 29213 / MRSA, strain MRSA 53 | ATCC 29213 / MRSA, strain MRSA 54 | ATCC 29213 / MRSA, strain MRSA 55 | ATCC 29213 / MRSA, strain MRSA 56 | ATCC 29213 / MRSA, strain MRSA 60 | ATCC 29213 / MRSA, strain MRSA 61 | ATCC 29213 / MRSA, strain MRSA 62 | ATCC 29213 / MRSA, strain MRSA 64 | ATCC 29213 / MRSA, strain MRSA 65 | ATCC 29213 / MRSA, strain MRSA 66 | ATCC 29213 / MRSA, strain MRSA 68 | ATCC 29213 / MRSA, strain MRSA 70 | ATCC 29213 / MRSA, strain MRSA 72 | ATCC 29213 / MRSA, strain MRSA 73 | ATCC 29213 / MRSA, strain MRSA 74 | ATCC 29213 / MRSA, strain MRSA 76 | ATCC 29213 / MRSA, strain MRSA 77 | ATCC 29213 / MRSA, strain MRSA 78 | ATCC 29213 / MRSA, strain MRSA 79 | ATCC 29213 / MRSA, strain MRSA 80 | ATCC 29213 / MRSA, strain MRSA 81 | ATCC 29213 / MRSA, strain MRSA 82 | ATCC 29213 / MRSA, strain MRSA 83 | ATCC 29213 / MRSA, strain MRSA 84 | ATCC 29213 / MRSA, strain MRSA 85 | ATCC 29213 / MRSA, strain MRSA 86 | ATCC 29213 / MRSA, strain MRSA 87 | ATCC 29213 / MRSA, strain MRSA 88 | ATCC 29213 / MRSA, strain MRSA 89 | ATCC 29213 / MRSA, strain MRSA 90 | ATCC 29213 / MRSA, strain MRSA 91 | ATCC 29213 / MRSA, strain MRSA 92 | ATCC 29213 / MRSA, strain MRSA 93 | ATCC 29213 / MRSA, strain MRSA 94 | ATCC 29213 / MRSA, strain MRSA 95 | ATCC 29213 / MRSA, strain MRSA 97 | ATCC 29213 / MRSA, strain MRSA 101 | ATCC 29213 / MRSA, strain MRSA 102 | ATCC 29213 / MRSA, strain MRSA 103 | ATCC 29213 / MRSA, strain MRSA 104 | ATCC 29213 / MRSA, strain MRSA 105 | ATCC 29213 / MRSA, strain MRSA 106 | ATCC 29213 / MRSA, strain MRSA 107 | ATCC 29213 / MRSA, strain MRSA 108 | ATCC 29213 / MRSA, strain MRSA 109 | ATCC 29213 / MRSA, strain MRSA 111 | ATCC 29213 / MRSA, strain MRSA 112 | ATCC 29213 / MRSA, strain MRSA 113 | ATCC 29213 / NEWMAN, strain Newman
0.13 µg/mL: ATCC 29213 / MRSA, strain MRSA 45 | ATCC 29213 / MRSA, strain MRSA 46 | ATCC 29213 / MRSA, strain MRSA 48
> 16 µg/mL: ATCC 29213 / MRSA, strain MRSA 16 | ATCC 29213 / MRSA, strain MRSA 17
0.5 µg/mL: ATCC 29213 / MRSA, strain MRSA 26 | ATCC 29213 / MRSA, strain MRSA 28 | ATCC 29213 / MRSA, strain MRSA 35 | ATCC 29213 / MRSA, strain MRSA 75 | ATCC 29213 / MRSA, strain MRSA 98 | ATCC 29213 / MRSA, strain MRSA 99 | ATCC 29213 / MRSA, strain MRSA 100
